Assay results: ChEMBL document CHEMBL5584345, “Discovery of Novel 2-Aminopyridine-Based and 2-Aminopyrimidine-Based Derivatives as Potent CDK/HDAC Dual Inhibitors for the Treatment of Refractory Solid Tumors and Hematological Malignancies” (J Med Chem, 2024)
Blank lines part the entries; values can stand above or below the compound they belong to.

Assays:
[1] = target: Cyclin-dependent kinase 9 (Homo sapiens, UniProt P50750)
Description: Inhibition of CDK9 (unknown origin) using ULight 4EBP1 peptide as substrate incubated for 2 hrs in presence of ATP by FRET assay

[2] = target: Protein deacetylase HDAC6 (Homo sapiens, UniProt Q9UBN7)
Description: Inhibition of human recombinant HDAC6 using Boc-Lys(eta-acetyl)-AMC as substrate incubated for 24 hrs by fluorescence based Envision plate reader analysis

Histone deacetylase 1 = Histone deacetylase 1 (Homo sapiens, UniProt Q13547)
Description: Inhibition of human recombinant HDAC1 using Ac-Lys-Tyr-Lys(eta-acetyl)-AMC as substrate incubated for 24 hrs by fluorescence based Envision plate reader analysis

Histone deacetylase 3 = Histone deacetylase 3 (Homo sapiens, UniProt O15379)
Histone deacetylase 4 = Histone deacetylase 4 (Homo sapiens, UniProt P56524); assay: Inhibition of human recombinant HDAC4 using Ac-Leu-Gly-Lys(Tfa)-AMC as substrate incubated for 24 hrs by fluorescence based Envision plate reader analysis
[3] = target: Cyclin-dependent kinase 7 (Homo sapiens, UniProt P50613)
Description: Inhibition of CDK7 (unknown origin) using ULight 4EBP1 peptide as substrate incubated for 2 hrs in presence of ATP by FRET assay

Aurora kinase A = Aurora kinase A (Homo sapiens, UniProt O14965); assay: Inhibition of AurorA (unknown origin)
[4] = target: Serine/threonine-protein kinase pim-1 (Homo sapiens, UniProt P11309); assay: Inhibition of PIM1 (unknown origin)
[5] = target: Tyrosine-protein kinase BTK (Homo sapiens, UniProt Q06187); assay: Inhibition of BTK (unknown origin)
[6] = target: Epidermal growth factor receptor (Homo sapiens, UniProt P00533); assay: Inhibition of EGFR (unknown origin)
[7] = target: Serine/threonine-protein kinase Chk1 (Homo sapiens, UniProt O14757); assay: Inhibition of CHK1 (unknown origin)
[8] = target: Receptor-type tyrosine-protein kinase FLT3 (Homo sapiens, UniProt P36888); assay: Inhibition of FLT3 (unknown origin)
[9] = target: Serine/threonine-protein kinase 17B (Homo sapiens, UniProt O94768); assay: Inhibition of DRAK2 (unknown origin)
[10] = target: Interleukin-1 receptor-associated kinase 4 (Homo sapiens, UniProt Q9NWZ3); assay: Inhibition of IRAK4 (unknown origin)
[11] = target: Ribosomal protein S6 kinase beta-1 (Homo sapiens, UniProt P23443); assay: Inhibition of P70S6K (unknown origin)
[12] = target: Tyrosine-protein kinase JAK3 (Homo sapiens, UniProt P52333); assay: Inhibition of JAK3 (unknown origin)
[13] = target: Cyclin-dependent kinase 2 (Homo sapiens, UniProt P24941); assay: Inhibition of CDK2 (unknown origin) using ULight 4EBP1 peptide as substrate incubated for 2 hrs in presence of ATP by FRET assay
KG-1 = assay: Antiproliferative activity against human KG-1 cells incubated for 72 hrs by celltiter-glo luminescent assay; details: KG-1, 72 h
Rec1 = assay: Antiproliferative activity against human REC1 cells incubated for 72 hrs by celltiter-glo luminescent assay; details: Rec1, 72 h
HT-29 = assay: Antiproliferative activity against human HT-29 cells incubated for 72 hrs by celltiter-glo luminescent assay; details: HT-29, 72 h
A549 = assay: Antiproliferative activity against human A549 cells incubated for 72 hrs by celltiter-glo luminescent assay; type: functional, cell-based; details: A549, 72 h
CESS = assay: Antiproliferative activity against human CESS cells incubated for 72 hrs by celltiter-glo luminescent assay
PC-9 = assay: Antiproliferative activity against human PC-9 cells incubated for 72 hrs by celltiter-glo luminescent assay; details: PC-9, 72 h
MV4-11 [14] = assay: Antiproliferative activity against human MV4-11 cells incubated for 72 hrs by celltiter-glo luminescent assay; details: MV4-11, 72 h
MV4-11 [15] = assay: Antitumor activity against human MV4-11 cells xenografted in female nu/nu mouse assessed as test to control ratio at 50 mg/kg, sc bid for 19 days; type: functional; details: time 19 day

Sequence of Histone deacetylase 4 (P56524 whole entry): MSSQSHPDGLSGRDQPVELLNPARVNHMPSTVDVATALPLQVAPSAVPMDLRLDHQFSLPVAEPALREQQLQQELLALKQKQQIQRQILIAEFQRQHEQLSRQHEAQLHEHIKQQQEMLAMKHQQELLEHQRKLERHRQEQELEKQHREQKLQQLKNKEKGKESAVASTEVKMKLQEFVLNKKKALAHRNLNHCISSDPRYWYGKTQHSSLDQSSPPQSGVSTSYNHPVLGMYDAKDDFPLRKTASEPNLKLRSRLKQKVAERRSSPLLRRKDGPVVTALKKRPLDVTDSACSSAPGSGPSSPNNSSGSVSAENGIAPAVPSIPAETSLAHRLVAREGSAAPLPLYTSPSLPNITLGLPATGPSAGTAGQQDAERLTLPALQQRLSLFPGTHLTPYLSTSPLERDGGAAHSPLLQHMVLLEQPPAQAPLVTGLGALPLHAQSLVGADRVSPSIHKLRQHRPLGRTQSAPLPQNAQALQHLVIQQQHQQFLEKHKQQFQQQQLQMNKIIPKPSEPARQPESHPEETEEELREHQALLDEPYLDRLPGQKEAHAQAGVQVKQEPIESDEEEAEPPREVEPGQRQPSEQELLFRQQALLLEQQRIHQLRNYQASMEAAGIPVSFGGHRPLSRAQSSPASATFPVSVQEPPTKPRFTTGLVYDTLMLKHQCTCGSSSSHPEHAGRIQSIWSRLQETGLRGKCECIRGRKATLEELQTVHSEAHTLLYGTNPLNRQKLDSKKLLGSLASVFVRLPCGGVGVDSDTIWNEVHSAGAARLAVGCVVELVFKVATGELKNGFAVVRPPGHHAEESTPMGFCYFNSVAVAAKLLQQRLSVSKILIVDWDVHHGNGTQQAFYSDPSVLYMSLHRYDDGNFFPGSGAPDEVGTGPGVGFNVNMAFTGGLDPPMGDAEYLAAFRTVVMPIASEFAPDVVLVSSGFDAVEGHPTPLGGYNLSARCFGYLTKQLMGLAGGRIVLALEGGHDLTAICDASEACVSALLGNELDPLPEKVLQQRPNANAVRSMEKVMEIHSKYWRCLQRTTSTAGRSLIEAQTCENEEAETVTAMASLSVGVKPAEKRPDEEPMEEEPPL
Sequence of Cyclin-dependent kinase 9 (P50750 whole entry): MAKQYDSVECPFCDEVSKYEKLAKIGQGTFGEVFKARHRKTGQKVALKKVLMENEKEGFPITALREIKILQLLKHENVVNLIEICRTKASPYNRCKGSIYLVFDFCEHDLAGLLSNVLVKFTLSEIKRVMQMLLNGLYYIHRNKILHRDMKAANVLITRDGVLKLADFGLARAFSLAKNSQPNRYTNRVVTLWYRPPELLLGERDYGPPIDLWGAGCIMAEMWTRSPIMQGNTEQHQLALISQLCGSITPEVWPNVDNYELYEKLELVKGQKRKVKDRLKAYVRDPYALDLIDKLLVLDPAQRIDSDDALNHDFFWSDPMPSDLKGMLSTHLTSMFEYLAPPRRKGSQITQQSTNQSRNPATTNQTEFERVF
Sequence of Cyclin-dependent kinase 7 (P50613 whole entry): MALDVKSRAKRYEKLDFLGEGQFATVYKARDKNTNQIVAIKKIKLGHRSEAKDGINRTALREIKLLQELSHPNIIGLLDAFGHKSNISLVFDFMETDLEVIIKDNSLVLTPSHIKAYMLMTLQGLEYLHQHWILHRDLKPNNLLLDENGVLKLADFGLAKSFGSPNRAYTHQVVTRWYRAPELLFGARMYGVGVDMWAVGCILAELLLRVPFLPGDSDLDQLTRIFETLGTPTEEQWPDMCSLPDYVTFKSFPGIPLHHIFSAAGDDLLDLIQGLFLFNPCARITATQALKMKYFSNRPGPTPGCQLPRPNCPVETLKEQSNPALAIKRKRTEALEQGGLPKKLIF
Sequence of Tyrosine-protein kinase BTK (Q06187 whole entry): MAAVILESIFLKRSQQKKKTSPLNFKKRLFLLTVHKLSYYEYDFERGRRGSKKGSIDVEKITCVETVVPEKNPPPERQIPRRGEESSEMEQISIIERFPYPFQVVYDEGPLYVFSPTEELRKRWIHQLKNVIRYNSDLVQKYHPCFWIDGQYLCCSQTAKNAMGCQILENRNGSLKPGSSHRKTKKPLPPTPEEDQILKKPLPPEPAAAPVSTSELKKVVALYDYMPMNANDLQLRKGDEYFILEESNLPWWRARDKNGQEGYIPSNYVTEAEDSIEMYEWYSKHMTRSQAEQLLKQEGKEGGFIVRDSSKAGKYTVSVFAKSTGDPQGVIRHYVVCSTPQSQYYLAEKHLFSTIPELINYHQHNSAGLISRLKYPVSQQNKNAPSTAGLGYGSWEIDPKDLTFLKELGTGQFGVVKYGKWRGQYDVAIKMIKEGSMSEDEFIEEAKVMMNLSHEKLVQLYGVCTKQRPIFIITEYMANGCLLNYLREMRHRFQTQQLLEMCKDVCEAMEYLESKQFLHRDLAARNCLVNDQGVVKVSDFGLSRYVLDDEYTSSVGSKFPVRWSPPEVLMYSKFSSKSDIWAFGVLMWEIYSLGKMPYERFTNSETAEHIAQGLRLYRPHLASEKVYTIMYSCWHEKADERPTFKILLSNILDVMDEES
Sequence of Receptor-type tyrosine-protein kinase FLT3 (P36888 whole entry): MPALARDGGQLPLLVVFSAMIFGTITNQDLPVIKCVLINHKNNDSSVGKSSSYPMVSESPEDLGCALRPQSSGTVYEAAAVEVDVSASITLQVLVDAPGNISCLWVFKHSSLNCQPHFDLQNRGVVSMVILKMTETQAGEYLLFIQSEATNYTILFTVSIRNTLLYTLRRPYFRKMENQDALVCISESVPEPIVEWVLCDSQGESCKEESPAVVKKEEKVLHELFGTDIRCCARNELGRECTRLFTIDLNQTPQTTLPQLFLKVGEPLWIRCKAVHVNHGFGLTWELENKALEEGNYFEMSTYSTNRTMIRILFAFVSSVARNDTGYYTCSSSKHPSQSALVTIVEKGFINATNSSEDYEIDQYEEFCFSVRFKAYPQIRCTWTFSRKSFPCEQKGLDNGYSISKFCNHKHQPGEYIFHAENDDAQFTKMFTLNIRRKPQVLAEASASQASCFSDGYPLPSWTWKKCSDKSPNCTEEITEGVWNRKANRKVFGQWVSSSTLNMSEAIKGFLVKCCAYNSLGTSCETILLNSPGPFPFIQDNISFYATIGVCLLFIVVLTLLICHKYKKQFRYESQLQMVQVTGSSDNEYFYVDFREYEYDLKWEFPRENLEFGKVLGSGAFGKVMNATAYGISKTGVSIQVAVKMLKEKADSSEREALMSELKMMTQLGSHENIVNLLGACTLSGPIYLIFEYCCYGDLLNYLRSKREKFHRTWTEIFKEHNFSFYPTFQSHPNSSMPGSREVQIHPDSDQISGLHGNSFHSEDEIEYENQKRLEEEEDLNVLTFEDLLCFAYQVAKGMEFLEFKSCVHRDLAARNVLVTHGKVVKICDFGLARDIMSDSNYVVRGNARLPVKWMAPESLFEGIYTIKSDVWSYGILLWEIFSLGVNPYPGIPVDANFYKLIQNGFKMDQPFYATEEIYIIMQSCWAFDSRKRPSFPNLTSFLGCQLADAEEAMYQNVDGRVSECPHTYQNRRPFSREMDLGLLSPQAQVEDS
Sequence of Epidermal growth factor receptor (P00533 whole entry): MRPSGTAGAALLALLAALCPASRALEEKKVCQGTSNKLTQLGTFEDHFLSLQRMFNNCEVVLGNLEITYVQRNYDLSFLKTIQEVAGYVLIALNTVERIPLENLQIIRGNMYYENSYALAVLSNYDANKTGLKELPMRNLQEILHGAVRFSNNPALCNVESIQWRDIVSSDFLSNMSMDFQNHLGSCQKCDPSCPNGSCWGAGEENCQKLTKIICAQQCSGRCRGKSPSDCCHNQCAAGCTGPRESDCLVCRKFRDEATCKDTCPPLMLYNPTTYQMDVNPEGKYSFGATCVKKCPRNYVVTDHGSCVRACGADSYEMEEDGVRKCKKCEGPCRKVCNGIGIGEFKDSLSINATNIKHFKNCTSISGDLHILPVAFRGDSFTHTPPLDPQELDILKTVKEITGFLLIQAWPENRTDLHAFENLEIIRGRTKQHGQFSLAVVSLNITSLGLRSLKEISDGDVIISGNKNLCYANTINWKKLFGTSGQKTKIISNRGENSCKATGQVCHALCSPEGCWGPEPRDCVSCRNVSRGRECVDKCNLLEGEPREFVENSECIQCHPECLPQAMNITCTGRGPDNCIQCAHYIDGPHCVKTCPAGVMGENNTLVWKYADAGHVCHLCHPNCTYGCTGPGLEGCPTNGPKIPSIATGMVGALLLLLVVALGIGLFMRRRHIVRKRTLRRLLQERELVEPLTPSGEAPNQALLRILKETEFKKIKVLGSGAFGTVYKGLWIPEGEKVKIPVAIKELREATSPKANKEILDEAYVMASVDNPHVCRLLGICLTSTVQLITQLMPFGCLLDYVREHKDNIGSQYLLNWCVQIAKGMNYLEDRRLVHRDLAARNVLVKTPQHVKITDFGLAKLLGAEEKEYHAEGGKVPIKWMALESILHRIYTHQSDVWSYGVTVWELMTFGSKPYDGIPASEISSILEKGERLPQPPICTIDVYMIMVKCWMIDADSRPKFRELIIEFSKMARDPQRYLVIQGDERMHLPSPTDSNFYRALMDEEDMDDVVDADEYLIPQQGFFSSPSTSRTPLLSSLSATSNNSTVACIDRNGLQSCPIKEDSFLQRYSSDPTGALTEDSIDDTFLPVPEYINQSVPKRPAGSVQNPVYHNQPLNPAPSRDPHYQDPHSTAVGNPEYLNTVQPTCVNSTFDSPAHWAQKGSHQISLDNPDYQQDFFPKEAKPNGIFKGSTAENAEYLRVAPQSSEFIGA
Sequence of Aurora kinase A (O14965 whole entry): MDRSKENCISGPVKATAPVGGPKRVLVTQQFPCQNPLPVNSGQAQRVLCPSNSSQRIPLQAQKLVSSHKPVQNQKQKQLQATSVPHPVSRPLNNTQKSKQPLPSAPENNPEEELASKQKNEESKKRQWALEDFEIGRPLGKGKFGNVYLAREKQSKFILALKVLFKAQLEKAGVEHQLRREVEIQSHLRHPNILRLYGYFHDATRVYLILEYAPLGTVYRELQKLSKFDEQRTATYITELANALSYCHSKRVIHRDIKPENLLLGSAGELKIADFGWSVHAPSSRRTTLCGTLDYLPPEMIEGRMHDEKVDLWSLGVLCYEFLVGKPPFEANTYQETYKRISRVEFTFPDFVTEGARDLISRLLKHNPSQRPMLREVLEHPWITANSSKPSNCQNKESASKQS

IC50 (Histone deacetylase 4): > 10 µM
IC50 [3]: > 10 µM
Compound: COc1cc(F)ccc1-c1cc(Nc2cnn(CCCCCCC(=O)NO)c2)ncc1F

IC50 (Aurora kinase A): > 10 µM
IC50 (Histone deacetylase 4): > 20 µM
IC50 [4]: > 10 µM
IC50 [5]: > 10 µM
IC50 [6]: > 10 µM
IC50 [7]: > 10 µM
IC50 [8]: > 10 µM
IC50 [9]: > 10 µM
IC50 [10]: > 10 µM
IC50 [11]: > 10 µM
IC50 [12]: > 10 µM
Compound: N#CC1(CNc2cccc(-c3cc(Nc4cnn(Cc5ccc(C(=O)Nc6ccccc6N)cc5)c4)ncc3Cl)n2)CCOCC1

IC50 (Histone deacetylase 4): > 20 µM
IC50 [3]: > 10 µM
Compound: N#CC1(CNc2cccc(-c3cc(Nc4cnn(CCCCCCC(=O)Nc5ccccc5N)c4)ncc3Cl)n2)CCOCC1

IC50 (Histone deacetylase 4): > 10 µM
IC50 [3]: 2.81 µM
Compound: O=C(CCCCCCn1cc(Nc2ncc(Cl)c(-c3cnc4ccccn34)n2)cn1)NO

IC50 [1]: 0.0041 µM
IC50 (HT-29): 0.02 µM
IC50 [13]: > 10 µM
IC50 [3]: > 10 µM
IC50 (A549): 5.78 µM
IC50 (PC-9): 0.03 µM
IC50 (MV4-11 [14]): 0.003 µM
Compound: COC[C@@H](C)N[C@H]1CC[C@H](Nc2cc(-c3cccc(NCC4(C#N)CCOCC4)n3)c(Cl)cn2)CC1
IC50 (Rec1): 0.03 µM
IC50 (CESS): 0.01 µM
IC50 (KG-1): 0.02 µM

IC50 (Histone deacetylase 4): 1.08 µM
IC50 [3]: > 10 µM
Compound: N#CC1(CNc2cccc(-c3cc(Nc4cnn(Cc5ccc(C(=O)NO)cc5)c4)ncc3Cl)n2)CCOCC1

IC50 (Histone deacetylase 4): 2.5 µM
IC50 [3]: > 10 µM
Compound: N#CC1(CNc2cccc(-c3cc(Nc4cnn(CCCCCC(=O)NO)c4)ncc3Cl)n2)CCOCC1

IC50 (Histone deacetylase 4): > 10 µM
IC50 [3]: 0.566 µM
Compound: O=C(CCCCCn1cc(Nc2ncc(Cl)c(-c3cnc4ccccn34)n2)cn1)NO

IC50 (Histone deacetylase 4): > 10 µM
IC50 [3]: > 10 µM
Compound: COc1cc(F)ccc1-c1cc(Nc2cnn(CCCCCC(=O)NO)c2)ncc1F

IC50 (Histone deacetylase 4): 4.4 µM
IC50 [3]: > 10 µM
Compound: N#CC1(CNc2cccc(-c3cc(Nc4cnn(CCCCCCC(=O)NO)c4)ncc3Cl)n2)CCOCC1

Further lines, the compound ahead of its results:

Compound: O=C(/C=C/c1ccc(Nc2ncc(Cl)c(OC3CCCCC3)n2)cc1)NO
IC50 [1]: 7.89 µM
IC50 [2]: 0.646 µM
IC50 (Histone deacetylase 1): > 10 µM
IC50 (Histone deacetylase 3): 7.21 µM

Compound: COc1cc(F)ccc1-c1cc(Nc2ccc(NC(=O)CCCCCCC(=O)NO)cc2)ncc1F
IC50 (Histone deacetylase 4): > 10 µM
IC50 [3]: > 10 µM

Compound: CCCNNC(=O)CCCCCn1cc(Nc2ncc(Cl)c(-c3cnc4ccc(-c5ccccc5)cn34)n2)cn1
IC50 (Histone deacetylase 4): > 20 µM
IC50 [3]: > 10 µM

Compound: CCCNNC(=O)CCCCCCn1cc(Nc2ncc(Cl)c(-c3cnc4ccccn34)n2)cn1
IC50 (Histone deacetylase 4): > 20 µM
IC50 [13]: > 10 µM
IC50 [3]: > 10 µM

Compound: O=C(CCCCCCC(=O)Nc1ccccc1)NO [VORINOSTAT]
IC50 (KG-1): 0.79 µM

Compound: CCCNNC(=O)c1ccc(Cn2cc(Nc3ncc(Cl)c(-c4cnc5ccccn45)n3)cn2)cc1
IC50 (Aurora kinase A): > 10 µM
IC50 (Histone deacetylase 4): > 20 µM
IC50 [4]: > 10 µM
IC50 [5]: 9.13 µM
IC50 [6]: > 10 µM
IC50 [7]: > 10 µM
IC50 [8]: 0.0304 µM
IC50 [9]: > 10 µM
IC50 [3]: 0.973 µM
IC50 [10]: > 10 µM
IC50 [11]: 0.371 µM
IC50 [12]: 2.38 µM

Compound: Nc1ccn([C@@H]2O[C@H](CO)[C@@H](O)[C@@H]2O)c(=O)n1 [CYTARABINE]
T/C (MV4-11 [15]): 33.41%

Compound: COc1cc(F)ccc1-c1cc(Nc2ccc(NC(=O)CCCCCCC(=O)Nc3ccccc3N)cc2)ncc1F
IC50 (Histone deacetylase 4): > 20 µM
IC50 [3]: > 10 µM

Compound: CCCNNC(=O)CCCCCn1cc(Nc2ncc(Cl)c(-c3cnc4ccccn34)n2)cn1
IC50 (Histone deacetylase 4): > 20 µM
IC50 [13]: > 10 µM
IC50 [3]: > 10 µM

Compound: COc1cc(F)ccc1-c1cc(Nc2ccc(/C=C/C(=O)Nc3ccccc3N)cc2)ncc1F
IC50 [1]: 0.0684 µM
IC50 [2]: > 20 µM
IC50 (Histone deacetylase 1): > 20 µM
IC50 (Histone deacetylase 3): 3.55 µM

Compound: CCCNNC(=O)c1ccc(Cn2cc(Nc3ncc(Cl)c(-c4cnc5ccc(-c6ccccc6)cn45)n3)cn2)cc1
IC50 (Histone deacetylase 4): > 20 µM
IC50 [13]: > 10 µM
IC50 [3]: > 10 µM
